Laboratory results from patent US20040191169A1, “Methods of protection from toxicity of alpha emitting elements during radioimmunotherapy” (priority 2003, published 2004).

How the values were obtained:
[1] = cited from earlier work
[2] = Tumor burden experiment: ^213Bi activity in kidneys and femurs after ^225Ac labeled SJ25C1, disseminated human Daudi lymphoma; assay type: in vivo, SCID mice
Procedure: Disseminated human Daudi lymphoma (84) treated with ^225Ac labeled anti-CD19, was used as the model system. SCID mice, 10-12 weeks old, were randomized to “low tumor burden” or 7 days growth of tumor, “high tumor burden” or 30 days growth of tumor or “high tumor burden+DMPS” group or 30 days growth of tumor and treated with 1.2 mg/ml DMPS in drinking water, starting one day before injection with ^225Ac nanogenerator. All mice were injected intravenously with 5×10^6 Daudi lymphoma cells in 0.1 ml phosphate buffered saline (PBS). The “low burden” animals were injected with the tumor cells 23 days after the “high burden” ones. The animals were checked daily for the onset of hind-leg paralysis. 30 days after injection of tumor cells in the “high burden” animals and 7 days after injection for the “low burden” group, all animals were injected retro-orbitally with 0.5 μCi of ^225Ac labeled SJ25C1 in 100 μl.
The animals (5 per group) were sacrificed at 24 hours post-injection and the mean ^225Ac, ^221Fr and ^213Bi activity (% ID/g) in blood, femurs and kidneys was calculated for each experimental group. The % of human-CD20 positive cells in the femoral bone marrow was estimated in one representative animal from the “high and low burden” groups by flow cytometric staining with phycoerythrin (PE)-conjugated anti-human CD20 (BD, San Jose, Calif.) and compared to that of a non tumor-bearing mouse of the same strain.

[3] = In vivo biodistribution of [Ac]Hum195 at 24 hours in DMPS-treated and untreated monkeys; parameters: species or system cynomolgus monkeys; conditions: one treated versus one untreated monkey, DMPS in water 24 hours plus one i.v. dose 90 min before sacrifice
Procedure: Two cynomolgus monkeys weighing about 7 kg were injected with 25 μCi of Ac-225 nanogenerators on HuM195 antibodies. One monkey received water and the other received DMPS in water for 24 hours and one dose of DMPS intravenously 90 min before sacrifice. At 24 hours the two monkeys were sacrificed and the kidneys examined for Bi-213 daughters. A 70% reduction in Bi-213 in the kidneys of the treated monkey was found (FIG. 7).

[4] = Free metal scavenging with DMPS or DMSA: tissue ^213Bi and ^221Fr activity after ^225Ac labeled HuM195 injection; assay type: in vivo, mice; conditions: for renal ^213Bi activity: chelator in drinking water, mean (SE); for renal ^221Fr activity versus untreated controls: at either 6 hours or 72 hours post-injection
Procedure: (§1) The mice were anesthetized and then injected intravenously in the retro-orbital venous plexus with 0.5 μCi of either ^225Ac labeled HuM195 for chelation, diuresis and competitive metal blockade experiments or of ^225Ac labeled SJ25C1 for tumor burden experiments. The injected volume was 100 μl. In order to detect adequate numbers of disintegrations in tissues by use of the gamma-counter, the injected doses of ^225Ac nanogenerator, i.e., ˜30 μCi/kg, are much higher than the doses for human clinical trials with these adjuvants.
Animals received either 2,3-dimercapto-1-propanesulfonic acid (DMPS; Sigma, St. Louis, Mo.) or meso-2,3-dimercaptosuccinic acid (DMSA; Sigma, St. Louis, Mo.) in drinking water (1.2 mg/ml and 1.5 mg/ml, respectively), starting one day before injection with ^225Ac nanogenerator and continued until the animals were sacrificed. The control animals received regular drinking water. Animals (n=5 per group) were sacrificed at 6 and 72 hours post-injection by carbon-dioxide asphyxiation.
Samples of blood taken by cardiac puncture, of kidneys, of liver and of small intestine were removed. The organs were washed in distilled water, blotted dry on gauze, weighed, and the activity of ^221Fr (185-250 keV window) and ^213Bi (360-480 keV window) was measured using a gamma counter (COBRA II, Packard Instrument Company, Meriden, Conn.). Samples of the injectate (100 μl) were used as decay correction standards. Adjustment was made for the small percentage of bismuth activity that counted in the francium activity window. Percentage injected dose of ^225Ac, ^221Fr and ^213Bi per gram of tissue weight (% ID/g) was calculated for each animal at the time of sacrifice, using the equation (78):
A2(0)=[A2−A2(eq)·(e^−λ2t−e^−λ1t)]·e^λ2t
where λ1 and λ2 are the decay constants of Ac and Bi, respectively. The mean % ID/g was determined for each experimental group.

[5] = Diuretic therapy, alone or combined with DMPS: renal ^221Fr and ^213Bi activity after ^225Ac labeled HuM195 injection; assay type: in vivo, mice; conditions: diuretic alone i.p.; 24 hours post-injection
Procedure: as §1
Mice were randomized to furosemide treatment, chlorthiazide (CTZ) treatment or no treatment(control)groups (5 animals per group). Furosemide and CTZ were administered intraperitoneally (i.p.). The loading doses of furosemide and CTZ were 250 mg/kg and 750 mg/kg respectively, administered one hour before ^225Ac nanogeneratorinjection. The maintenance doses were 100 mg/kg and 300 mg/kg, respectively, administered 12 hours and 24 hours after the loading dose. The controls were injected with an equal volume of saline (vehicle).
Alternatively, mice received DMPS (1.2 mg/ml in drinking water) and either furosemide or CTZ i.p using the same dose schedule as above. The controls received regular drinking water and were injected with an equal volume of saline. The animals were sacrificed at 24 hours post-injection with the labeled antibody and the mean activity (% ID/g) of ^225Ac, ^221Fr and ^213Bi in blood and kidneys was calculated for each experimental group, as described above.

[6] = Competitive metal blockade with bismuth subnitrate: renal ^213Bi and ^221Fr activity after ^225Ac labeled HuM195 injection; assay type: in vivo, mice
Procedure: as §1
Mice (5 per group) were injected i.p. with 200 μl of 1% bismuth subnitrate (BSN; Sigma, St. Louis, Mo.) suspension (100 mg/kg) or an equal volume of saline (controls) 4 hours before ^225Ac nanogenerator injection. These animals were sacrificed at 6 hours post-injection with the ^225Ac nanogenerator. Alternatively, mice were injected i.p. with 200 μl of 1% BSN suspension, 4 hours before and 8 and 20 hours after ^225Ac nanogenerator injection (n=5) or an equal volume of saline (n=5). These animals were sacrificed 24 hours after ^225Ac nanogenerator injection. The mean % ID/g of ^225Ac, ^221Fr and ^213Bi in blood and kidneys at sacrifice-time was calculated for each experimental group.

CD33 antigen = CD33 antigen (Homo sapiens, UniProt P20138); conditions: on the order of; cited from earlier work
Sequence of CD33 antigen (P20138 18-364): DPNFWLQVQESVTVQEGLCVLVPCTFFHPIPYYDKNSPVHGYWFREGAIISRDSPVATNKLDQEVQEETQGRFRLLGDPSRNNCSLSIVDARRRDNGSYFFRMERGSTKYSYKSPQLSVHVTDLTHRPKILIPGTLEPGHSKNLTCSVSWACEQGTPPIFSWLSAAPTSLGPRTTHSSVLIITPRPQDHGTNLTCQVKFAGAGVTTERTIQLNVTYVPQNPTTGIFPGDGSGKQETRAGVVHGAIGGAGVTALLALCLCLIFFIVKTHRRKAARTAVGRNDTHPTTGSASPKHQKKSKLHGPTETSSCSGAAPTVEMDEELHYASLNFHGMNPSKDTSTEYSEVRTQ

Compound | extent of non-protein sulfhydryl formation in human plasma [1] [%] | mean blood ^213Bi activity ([4]; 6 hours post-injection) [% ID/g] | renal ^213Bi activity ([4]; 6 hours post-injection) [% ID/g] | mean blood ^213Bi activity ([4]; 72 hours post-injection) [% ID/g] | renal ^213Bi activity ([4]; 72 hours post-injection) [% ID/g] | renal ^221Fr activity versus untreated controls [4] | 24 hour renal ^213Bi activity [5] [% ID/g] | 24 hour renal ^221Fr activity [5] [% ID/g] | other results
O=S(=O)(O)CC(S)CS (stereo not shown) [DMPS, 2,3-dimercapto-1-propanesulfonic acid] | 37 | 9.2±0.5 | 38.6±5.5 | 5.5±0.1 | 21.7±2.1 | not significantly different |  |  | kidney to femur activity ratio for ^213Bi ([2]; DMPS treated animals bearing the target tumor): significantly lower; renal ^213Bi activity ([2]; high tumor burden + DMPS 1.2 mg/ml in drinking water, 24 hours post-injection): 16.7±2.7 % ID/g; femur ^213Bi activity ([2]; high tumor burden + DMPS, 24 hours post-injection): 4.8±0.6 % ID/g; reduction in Bi-213 in the kidneys [3]: 70%; relative effectiveness in reducing the renal ^213Bi activity ([4]; comparison between chelators): significantly more effective than DMSA
NS(=O)(=O)c1cc(C(=O)O)c(NCc2ccco2)cc1Cl [furosemide] |  |  |  |  |  |  | 18.3±0.6 | 11.8±0.4 | 
O=[N+]([O-])[O-].O=[N+]([O-])[O-].O=[N+]([O-])[O-].O=[N+]([O-])[O-].[Bi+3].[Bi+3].[Bi+3].[Bi+3].[Bi+3].[O-2].[OH-].[OH-].[OH-].[OH-].[OH-].[OH-].[OH-].[OH-].[OH-] [BSN, bismuth subnitrate] |  |  |  |  |  |  |  |  | renal ^213Bi activity ([6]; 6 hours post-injection, BSN 100 mg/kg i.p. 4 hours before): 46.1±1.4 % ID/g; renal ^213Bi activity ([6]; 24 hours post-injection, BSN i.p. 4 hours before and 8 and 20 hours after): 48.2±0.6 % ID/g; renal ^221Fr activity ([6]; at either time-point (6 hours, 24 hours)): unaltered
HuM195: humanized anti-CD33 IgG1 monoclonal antibody |  |  |  |  |  |  |  |  | affinity (CD33 antigen): 10^−9 to 10^−10 M
NS(=O)(=O)c1cc2c(cc1Cl)N=CNS2(=O)=O [CTZ, chlorthiazide] |  |  |  |  |  |  | 18.6±1.6 | 9.7±0.4 | 
O=C(O)[C@@H](S)[C@@H](S)C(=O)O [DMSA, meso-2,3-dimercaptosuccinic acid] | 8 | 5.8±0.5 | 66.0±1.9 | 4.8±0.6 | 41.4±7.3 | not significantly different |  |  | 
